Results on 23 compounds are retold here after US9650339B2, “Inhibitors of histone demethylases” (Gilead Sciences, Inc., priority 2013, dated 2017).

In assay [1] the target is T1, KDM3B (JMJD1B) (Homo sapiens, UniProt Q7LBC6).
T1 construct: 842-1761; host or cells: Bac (baculovirus system)
T1 sequence (Q7LBC6 842-1761): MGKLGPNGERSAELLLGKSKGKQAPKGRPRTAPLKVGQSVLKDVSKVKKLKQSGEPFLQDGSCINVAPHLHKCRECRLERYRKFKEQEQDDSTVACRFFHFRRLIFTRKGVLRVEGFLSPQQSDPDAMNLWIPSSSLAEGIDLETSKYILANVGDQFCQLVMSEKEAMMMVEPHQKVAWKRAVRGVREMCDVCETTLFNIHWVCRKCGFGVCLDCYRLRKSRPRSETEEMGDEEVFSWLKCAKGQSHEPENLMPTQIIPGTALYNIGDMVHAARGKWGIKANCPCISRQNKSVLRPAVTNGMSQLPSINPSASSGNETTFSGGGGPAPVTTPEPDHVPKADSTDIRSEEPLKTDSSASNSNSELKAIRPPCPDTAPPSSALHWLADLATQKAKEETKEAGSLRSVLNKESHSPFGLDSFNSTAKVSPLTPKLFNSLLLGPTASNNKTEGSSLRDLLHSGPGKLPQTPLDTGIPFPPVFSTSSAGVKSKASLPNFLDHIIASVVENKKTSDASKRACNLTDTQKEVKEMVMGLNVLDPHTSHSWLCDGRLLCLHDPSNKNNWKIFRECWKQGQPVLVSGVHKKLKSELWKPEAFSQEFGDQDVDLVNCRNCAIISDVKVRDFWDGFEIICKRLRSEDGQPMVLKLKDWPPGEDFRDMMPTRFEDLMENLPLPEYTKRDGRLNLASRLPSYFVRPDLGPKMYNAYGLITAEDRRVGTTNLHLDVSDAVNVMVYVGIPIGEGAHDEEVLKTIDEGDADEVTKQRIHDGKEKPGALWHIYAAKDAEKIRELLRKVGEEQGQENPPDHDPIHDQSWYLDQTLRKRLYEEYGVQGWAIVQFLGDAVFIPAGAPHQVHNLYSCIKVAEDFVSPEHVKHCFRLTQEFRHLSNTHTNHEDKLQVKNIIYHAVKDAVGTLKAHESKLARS
Description: Histone lysine demethylase AlphaLISA assay, KDM3B. In kind it is biochemical. To be noted: read-out: KDM3B HDME Inhibition IC50. How it is done: Assays are performed analogously to the protocol described by PerkinElmer (Roy et al. PerkinElmer Technical Note: AlphaLISA #12, April 2011)
Enzymes are dissolved in enzyme buffer and incubated for 10 min before being added to 3% DMSO solutions of compounds in enzyme buffer. Incubated for another 10 minutes, before substrate solution is added and the reaction mixture is incubated at room temperature. 10 μL acceptor beads, suspended in Epigenetic Buffer (Perkin Elmer AL008) from stock, are added and the suspension is incubated in the dark at room temperature, before a suspension of streptavidin donor beads (Perkin Elmer 6760002) in Epigenetic Buffer is added. After incubation at room temperature in the dark the plates are read. […]
BK9M2: Biotin-ARTKQTAR(KMe2)STGGKAPRKQ-NH2 (AnaSpec 64359) […]
Substrate Solution: Substrate, 25 μM L-Asc, and 10 μM α-KG in Buffer A.

Assay [2] concerns the target T2, KDM5B (PLU-1) (Homo sapiens, UniProt Q9UGL1).
T2 sequence (Q9UGL1 1-809): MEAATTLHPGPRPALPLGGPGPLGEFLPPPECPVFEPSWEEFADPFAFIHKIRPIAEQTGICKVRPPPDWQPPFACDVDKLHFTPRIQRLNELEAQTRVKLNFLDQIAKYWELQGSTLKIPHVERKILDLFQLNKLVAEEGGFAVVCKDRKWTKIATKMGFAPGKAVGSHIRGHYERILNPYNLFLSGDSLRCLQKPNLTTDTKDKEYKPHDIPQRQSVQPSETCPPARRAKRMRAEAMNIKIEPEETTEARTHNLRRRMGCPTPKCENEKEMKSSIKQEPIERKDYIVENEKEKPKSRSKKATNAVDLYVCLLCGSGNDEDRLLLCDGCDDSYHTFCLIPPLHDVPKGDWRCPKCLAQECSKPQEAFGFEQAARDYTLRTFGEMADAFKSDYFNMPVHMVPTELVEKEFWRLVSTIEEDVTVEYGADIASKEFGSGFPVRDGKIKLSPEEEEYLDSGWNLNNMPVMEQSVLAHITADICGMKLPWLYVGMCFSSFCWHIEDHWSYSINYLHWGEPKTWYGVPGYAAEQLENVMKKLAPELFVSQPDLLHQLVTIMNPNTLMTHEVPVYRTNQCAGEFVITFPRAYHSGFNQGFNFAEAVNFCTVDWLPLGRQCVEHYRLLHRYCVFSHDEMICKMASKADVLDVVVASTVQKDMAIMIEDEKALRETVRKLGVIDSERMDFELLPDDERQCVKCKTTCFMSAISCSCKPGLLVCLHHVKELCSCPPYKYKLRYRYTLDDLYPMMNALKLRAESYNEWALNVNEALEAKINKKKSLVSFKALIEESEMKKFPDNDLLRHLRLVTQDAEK
Description: Histone lysine demethylase AlphaLISA assay, KDM5B. In kind it is biochemical. Conditions: read-out: KDM5B HDME Inhibition IC50. The gist of the method:
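Enzyme 10 min pre-incubation; + compound (3% DMSO soln) 10 min; + biotin-H3 methyl-Lys peptide, 25 μM L-Asc, 10 μM α-KG, RT. Read: AlphaLISA acceptor beads, then streptavidin donor beads, RT, dark.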
(In Alpha technology, singlet oxygen from a donor bead excites a nearby acceptor bead.)

The term IC50 denotes the concentration at which inhibition is half-maximal.

The structures appear in SMILES notation.

Take `CCN(CCC#N)C(=O)CNCc1cc(/C=N/C2CC2)ccn1` [Compound 50, N-(2-cyanoethyl)-2-[({4-[N-cyclopropyl-carboximidoyl]-pyridin-2-yl}methyl)amino]-N-ethylacetamide]: the IC50 is above 2500 nM in assay [1] and below 250 nM in assay [2].
In the same order, the values of `CCN1CCCC1CNC(=O)CNCc1cc(/C=N/C2CC2)ccn1` (stereo not shown) [Compound 51, 2-[({4-[N-cyclopropyl-carboximidoyl]-pyridin-2-yl}methyl)-amino]-N-[(1-ethylpyrrolidin-2-yl)methyl]acetamide] are above 2500 nM and below 250 nM.
As to `CN(CCCn1cccn1)C(=O)CNCc1cc(/C=N/C2CC2)ccn1` [Compound 52, 2-[({4-[N-cyclopropyl-carboximidoyl]-pyridin-2-yl}methyl)amino]-N-methyl-N-[3-(1H-pyrazol-1-yl)propyl]acetamide], the results for the IC50 in assay [1] and in assay [2] were above 2500 nM and below 250 nM, respectively.
For the compound `O=C(CNCc1cc(/C=N/C2CC2)ccn1)NC1CCN(Cc2ccccc2)C1` (stereo not shown) [Compound 53, N-(1-benzylpyrrolidin-3-yl)-2-[({4-[N-cyclopropyl-carboximidoyl]pyridin-2-yl}methyl)amino]-acetamide], the IC50 in assay [1] was above 2500 nM; in assay [2], below 250 nM.
For `CN1CCN(C(=O)CNCc2cc(/C=N/C3CC3)ccn2)CC1` [Compound 54, 2-[({4-[N-cyclopropyl-carboximidoyl]-pyridin-2-yl}methyl)amino]-1-(4-methylpiperazin-1-yl)ethan-1-one], in that order: 250 to 2500 nM and below 250 nM.
For `O=C(CNCc1cc(/C=N/C2CC2)ccn1)N1CCC(Cc2ccccc2)CC1` [Compound 55, 1-(4-benzylpiperidin-1-yl)-2-[({4-[N-cyclopropyl-carboximidoyl]-pyridin-2-yl}methyl)amino]-ethan-1-one], in that order: above 2500 nM and below 250 nM.
For `C#CCN(C)C(=O)CNCc1cc(/C=N/C2CC2)ccn1` [Compound 56, 2-[({4-[N-cyclopropyl-carboximidoyl]-pyridin-2-yl}methyl)amino]-N-methyl-N-(prop-2-yn-1-yl)acetamide], in that order: above 2500 nM and 250 to 2500 nM.
`CCN(CC)C(=O)CNCc1cc(/C=N/CCC2CCCCC2)ccn1` [Compound 57, 2-[({4-[[(2-cyclohexylethyl)imino]-methyl]pyridin-2-yl}methyl)amino]-N,N-diethylacetamide]: the IC50 in assay [1] was above 2500 nM; in assay [2], below 250 nM.
In the same order, the values of `CCCCCCCC/N=C/c1ccnc(CNCC(=O)N(CC)CC)c1` [Compound 58, N,N-diethyl-2-[({4-[(octylimino)methyl]-pyridin-2-yl}methyl)amino]-acetamide] are above 2500 nM and below 250 nM.
For `CCN(CC)CCCCNCc1cc(/C=N/CCOC)ccn1` [Compound 60, [4-(diethylamino)butyl]-({4-[[(2-methoxyethyl)imino]-methyl]pyridin-2-yl}methyl)amine], in that order: above 2500 nM and below 250 nM.
In the same order, the values of `CCN(CC)CCCCNCc1cc(/C=N/CCO)ccn1` [Compound 61, 2-[{[2-({[4-(diethylamino)-butyl]amino}-methyl)pyridin-4-yl]methylidene}-amino]ethan-1-ol] are above 2500 nM and below 250 nM.
`CCN(CC)CCCCNCc1cc(/C=N/CC(F)(F)C(F)(F)F)ccn1` [Compound 62, {[2-({[4-(diethylamino)-butyl]amino}methyl)pyridin-4-yl]methylidene} (2,2,3,3,3-pentafluoropropyl)-amine]: the results for the IC50 in assay [1] and in assay [2] were above 2500 nM and below 250 nM, respectively.
As to `CCN(CCN(C)C)C(=O)CNCc1cc(/C=N/CCC2CCCCC2)ccn1` [Compound 63, 2-[({4-[[(2-cydohexylethyl)-imino]methyl]pyridin-2-yl}methyl)amino]-N-[2-(dimethylamino)-ethyl]-N-ethylacetamide], the IC50 was above 2500 nM in assay [1] and below 250 nM in assay [2].
For `CON=Cc1ccnc(CNCCCN(C)C)c1` [Compound 64, [3-(dimethylamino)-propyl]({4-[(methoxyimino)-methyl]pyridin-2-yl}methyl)amine], in that order: above 2500 nM and below 250 nM.
In the same order, the values of `CCN(CC)CCCCNCc1cc(C2NCCN2C)ccn1` (stereo not shown) [Compound 65, [4-(diethylamino)-butyl]({[4-(1-methylimidazolidin-2-yl)pyridin-2-yl]methyl})amine] are above 2500 nM and below 250 nM.
`CCN(CCN(C)C)C(=O)CNCc1cc(/C=N/CCO)ccn1` [Compound 66]: the IC50 is above 2500 nM in assay [1] and below 250 nM in assay [2].
For `CCN(CC)CCCCNCc1cc(/C=N\CCC2CCCCC2)ccn1` [Compound 67, (2-cyclohexylethyl)-({[2-({[4-(diethylamino)-butyl]amino}methyl)pyridin-4-yl]methylidene})-amine], in that order: above 2500 nM and below 250 nM.
For `CN(C)CC1CCC(CNCc2cc(C=O)ccn2)CC1` (stereo not shown) [Compound 97, 2-{[({4-[(dimethylamino)-methyl]cyclohexyl}-methyl)amino]-methyl}pyridine-4-carbaldehyde], in that order: above 2500 nM and 250 to 2500 nM.
Regarding `CN(C)C/C=C/CNCc1cc(C=O)ccn1` [Compound 98, 2-({[(2E)-4-(dimethylamino)but-2-en-1-yl]amino}-methyl)pyridine-4-carbaldehyde], the IC50 in assay [1] was above 2500 nM; in assay [2], below 250 nM.
Turning to `CN(C)C/C=C\CNCc1cc(C=O)ccn1` [Compound 99, 2-({[(2Z)-4-(dimethylamino)-but-2-en-1-yl]amino}methyl)-pyridine-4-carbaldehyde], the IC50 in assay [1] is above 2500 nM; in assay [2], below 250 nM.
For `CN1CCC(CNCc2cc(C=O)ccn2)CC1` [Compound 100, 2-({[(1-methyl-piperidin-4-yl)methyl]amino}-methyl)pyridine-4-carbaldehyde], in that order: above 2500 nM and below 250 nM.
Consider `CCN(CCN(C)C)C(=O)CNCc1cc(C=O)ccn1` [Compound 101], for which the IC50 was above 2500 nM in assay [1] and below 250 nM in assay [2].
For `O=Cc1ccnc(CNCC(=O)N2CCC[C@@H]2CN2CCCC2)c1` [Compound 102, 2-[({2-oxo-2-[(2R)-2-(pyrrolidin-1-ylmethyl)pyrrolidin-1-yl]ethyl}amino)-methyl]pyridine-4-carbaldehyde], in that order: above 2500 nM and below 250 nM.
